Laboratory results: article PMC4551390 (Leukemia, 2015)

Assays:
[1] = test system: XIAP; assay: Western blot protein expression in patient samples; type: in vivo, human; settings: 2 and 4 hours of treatment vs pretreatment
[2] = test system: tumor FDG uptake (SUV); assay: FDG PET/CT tumor metabolic response; type: in vivo, human; settings: Baseline vs Cycle 1 Day 22; 29 subjects scanned, 4 not evaluable
[3] = test system: T-cells; settings: pre-clinical; cited from earlier work
[4] = test system: bcl-2; assay: Western blot protein expression in patient samples; type: in vivo, human; settings: 2 and 4 hours of treatment vs pretreatment
[5] = test system: CLL cells; settings: pre-clinical; cited from earlier work
[6] = test system: relapsed and refractory CLL patients; assay: Phase I dose escalation: toxicity and tolerability; type: in vivo, human
[7] = test system: MCL-1; assay: Western blot protein expression in patient samples; type: in vivo, human; settings: 2 and 4 hours of treatment vs pretreatment, P<0.0001
[8] = treatment related, all cohorts, N=52

CCc1cnn2c(NCc3ccc[n+]([O-])c3)cc(N3CCCC[C@H]3CCO)nc12 [Dinaciclib]
14 mg/m^2: maximally tolerated dose ([6]; 2 hour infusion weekly x 3 of every 4 weeks)
no significant change: XIAP protein level [1] | BCL2 protein level [4]
35 (67) No (%): Hyperglycemia, Total [6, 8]
1: Pts with DLT ([6]; cohort 7 mg/m^2) | No Pts with Dose Reduction ([6]; cohort 10 mg/m^2) | Pts with TLS (Dialysis) ([6]; cohort 14 mg/m^2, requiring dialysis) | No Pts with Dose Reduction ([6]; cohort 17 mg/m^2) | No Pts with Dose Reduction ([6]; cohort 7→10→14 mg/m^2) | No Pts with Dose Reduction ([6]; cohort 10→14 mg/m^2)
5 (10) No (%): Hypophosphatemia, Grade 2 [6, 8] | Increased ALT, Grade 3 [6, 8] | Increased bilirubin, Grade 1 [6, 8] | Increased bilirubin, Total [6, 8]
0 (0) No (%): Constipation, Grade 4 [6, 8] | Cytokine release, Grade 4 [6, 8] | Diarrhea, Grade 4 [6, 8] | Fatigue, Grade 4 [6, 8] | Herpes infection, Grade 3 [6, 8] | Herpes infection, Grade 4 [6, 8] | Hyperglycemia, Grade 4 [6, 8] | Hyperphosphatemia, Grade 3 [6, 8] | Hyperphosphatemia, Grade 4 [6, 8] | Hypoalbuminemia, Grade 3 [6, 8] | Hypoalbuminemia, Grade 4 [6, 8] | Hypocalcemia, Grade 4 [6, 8] | Hypokalemia, Grade 4 [6, 8] | Hyponatremia, Grade 2 [6, 8] | Hyponatremia, Grade 4 [6, 8] | Increased ALT, Grade 4 [6, 8] | Increased Alkaline Phosphatase, Grade 3 [6, 8] | Increased Alkaline Phosphatase, Grade 4 [6, 8] | Increased bilirubin, Grade 2 [6, 8] | Increased bilirubin, Grade 3 [6, 8] | Increased bilirubin, Grade 4 [6, 8] | Increased creatinine, Grade 3 [6, 8] | Increased creatinine, Grade 4 [6, 8] | Nausea, Grade 3 [6, 8] | Nausea, Grade 4 [6, 8] | Pharyngitis/sinusitis/respiratory infection, Grade 3 [6, 8] | Pharyngitis/sinusitis/respiratory infection, Grade 4 [6, 8] | Pneumonia, Grade 1 [6, 8] | Pneumonia, Grade 2 [6, 8] | Sepsis, Grade 1 [6, 8] | Sepsis, Grade 2 [6, 8] | Sepsis, Grade 4 [6, 8] | Tumor lysis syndrome, Grade 1 [6, 8] | Tumor lysis syndrome, Grade 2 [6, 8] | Urosepsis, Grade 1 [6, 8] | Urosepsis, Grade 2 [6, 8] | Urosepsis, Grade 3 [6, 8]
10%: patients off therapy for adverse events ([6]; all patients)
7 (13) No (%): Diarrhea, Grade 2 [6, 8] | Fatigue, Grade 1 [6, 8] | Hyperkalemia, Grade 1 [6, 8] | Hyperphosphatemia, Total [6, 8] | Tumor lysis syndrome, Grade 3 [6, 8]
28 (54) No (%): Neutropenia, Grade 4 [6, 8]
16 (31) No (%): Hyperglycemia, Grade 2 [6, 8]
5: No Pts with Dose Reduction ([6]; cohort 14 mg/m^2)
20 (38) No (%): Increased ALT, Total [6, 8]
27 (52) No (%): Hypocalcemia, Total [6, 8] | Hypokalemia, Total [6, 8]
9 (17) No (%): Hypocalcemia, Grade 3 [6, 8] | Hypokalemia, Grade 3 [6, 8] | Increased ALT, Grade 2 [6, 8] | Increased Alkaline Phosphatase, Total [6, 8]
0: No Pts with Dose Reduction ([6]; cohort 5 mg/m^2) | Pts with DLT ([6]; cohort 5 mg/m^2) | No Pts with Dose Reduction ([6]; cohort 7 mg/m^2) | Pts with DLT ([6]; cohort 10 mg/m^2)
6 (12) No (%): Constipation, Total [6, 8] | Cytokine release, Grade 2 [6, 8] | Hyperphosphatemia, Grade 1 [6, 8] | Hypophosphatemia, Grade 1 [6, 8] | Hypophosphatemia, Grade 3 [6, 8] | Increased ALT, Grade 1 [6, 8] | Thrombocytopenia, Grade 2 [6, 8]
3: deaths within 30 days of last dose ([6]; all patients, two due to disease progression)
not cytotoxic: cytotoxicity to T-cells [3]
2: Pts with TLS ([6]; cohort 10→14 mg/m^2)
18 (35) No (%): Hyponatremia, Grade 1 [6, 8] | Hypophosphatemia, Total [6, 8]
Five: other patients who discontinued therapy due to toxicity ([6]; all patients)
23 (44) No (%): Diarrhea, Total [6, 8]
12 (23) No (%): Hypoalbuminemia, Grade 1 [6, 8]
3 (6) No (%): Herpes infection, Total [6, 8] | Hyperkalemia, Grade 2 [6, 8] | Hyperkalemia, Grade 3 [6, 8] | Hyperkalemia, Grade 4 [6, 8] | Hypoalbuminemia, Grade 2 [6, 8] | Increased creatinine, Grade 2 [6, 8] | Nausea, Grade 2 [6, 8] | Neutropenia, Grade 1 [6, 8]
34 (65) No (%): Increased AST, Total [6, 8]
significantly reduced expression: MCL-1 protein expression [7]
15 (29) No (%): Hypoalbuminemia, Total [6, 8]
15: PET responders (30% or more decrease in SUV) [2]
19 (37) No (%): Hyponatremia, Total [6, 8]
8 (15) No (%): Anemia, Grade 1 [6, 8] | Cytokine release, Total [6, 8] | Fatigue, Grade 2 [6, 8] | Hyperglycemia, Grade 1 [6, 8] | Increased AST, Grade 2 [6, 8] | Increased Alkaline Phosphatase, Grade 1 [6, 8] | Tumor lysis syndrome, Total [6, 8]
4 (8) No (%): Constipation, Grade 1 [6, 8] | Pharyngitis/sinusitis/respiratory infection, Total [6, 8]
10: PET non-responders [2]
1 (1): Pts with TLS ([6]; cohort 17 mg/m^2) | Pts with TLS (Dialysis) ([6]; cohort 17 mg/m^2, requiring dialysis) | Pts with TLS ([6]; cohort 7→10→14 mg/m^2)
17 (33) No (%): Anemia, Grade 2 [6, 8] | Hypocalcemia, Grade 1 [6, 8] | Hypokalemia, Grade 1 [6, 8]
4: Pts with TLS ([6]; cohort 14 mg/m^2)
2 (4) No (%): Diarrhea, Grade 3 [6, 8] | Fatigue, Grade 3 [6, 8] | Herpes infection, Grade 1 [6, 8] | Increased AST, Grade 4 [6, 8] | Neutropenia, Grade 2 [6, 8] | Pharyngitis/sinusitis/respiratory infection, Grade 1 [6, 8] | Pharyngitis/sinusitis/respiratory infection, Grade 2 [6, 8] | Pneumonia, Grade 3 [6, 8] | Pneumonia, Total [6, 8]
17(33) No (%): Fatigue, Total [6, 8]
11 (21) No (%): Hyperglycemia, Grade 3 [6, 8] | Increased AST, Grade 1 [6, 8] | Increased creatinine, Grade 1 [6, 8] | Thrombocytopenia, Grade 3 [6, 8]
40 (77) No (%): Anemia, Total [6, 8]
37 (71) No (%): Thrombocytopenia, Total [6, 8]
14 (27) No (%): Anemia, Grade 3 [6, 8] | Diarrhea, Grade 1 [6, 8] | Increased creatinine, Total [6, 8]
44 (85) No (%): Neutropenia, Total [6, 8]
13 (25) No (%): Increased AST, Grade 3 [6, 8] | Nausea, Total [6, 8]
10 (19) No (%): Nausea, Grade 1 [6, 8] | Thrombocytopenia, Grade 1 [6, 8] | Thrombocytopenia, Grade 4 [6, 8]
improved therapeutic efficacy: therapeutic efficacy against CLL cells as compared to flavopiridol [5]
1 (2) No (%): Anemia, Grade 4 [6, 8] | Constipation, Grade 2 [6, 8] | Constipation, Grade 3 [6, 8] | Cytokine release, Grade 1 [6, 8] | Cytokine release, Grade 3 [6, 8] | Herpes infection, Grade 2 [6, 8] | Hyperphosphatemia, Grade 2 [6, 8] | Hypocalcemia, Grade 2 [6, 8] | Hypokalemia, Grade 2 [6, 8] | Hyponatremia, Grade 3 [6, 8] | Hypophosphatemia, Grade 4 [6, 8] | Increased Alkaline Phosphatase, Grade 2 [6, 8] | Sepsis, Grade 3 [6, 8] | Sepsis, Total [6, 8] | Tumor lysis syndrome, Grade 4 [6, 8] | Urosepsis, Grade 4 [6, 8] | Urosepsis, Total [6, 8]
